Test results from PubChem BioAssay (NCI).
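Briefly, cells in 96-well plates were exposed to five compound concentrations for 48 h, and endpoints were estimated by linear interpolation. At the GI50, growth is halved. TGI is the concentration that stops growth completely.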

Columns and labels:
Test in all cases: NCI anticancer screen, dose series, 48 h
[1] = tested on: CCRF-CEM leukemia
[2] = tested on: K-562 leukemia
[3] = tested on: RPMI-8226 leukemia
[4] = tested on: U251 CNS
[5] = tested on: DU-145 prostate
[6] = tested on: HOP-92 NSCLC
[7] = tested on: SW-620 colon
[8] = tested on: MCF7 breast
[9] = tested on: SNB-75 CNS
[10] = tested on: OVCAR-3 ovarian
[11] = tested on: UACC-62 melanoma
[12] = tested on: UO-31 renal
[13] = tested on: A549 NSCLC
[14] = tested on: SR leukemia
[15] = tested on: HCT-15 colon
[16] = tested on: TK-10 renal
[17] = tested on: SF-268 CNS
[18] = tested on: OVCAR-4 ovarian
[19] = tested on: PC-3 prostate
[20] = tested on: HOP-62 NSCLC
[21] = tested on: NCI-H460 lung
[22] = tested on: EKVX NSCLC
[23] = tested on: T-47D breast
[24] = tested on: SK-MEL-28 melanoma
[25] = tested on: SK-OV-3 ovarian
[26] = tested on: HCT-116 colon
[27] = tested on: HL-60(TB) leukemia

N#CC1=C(N)Oc2c(sc3c(Br)cccc23)C1c1ccc(F)cc1 (centres undefined)
GI50 [1]: 381 nM | TGI [1]: 13000 nM | GI50 [2]: 275 nM | TGI [2]: 23900 nM | GI50 [3]: 482 nM | TGI [3]: 19700 nM | GI50 [4]: 473 nM | TGI [4]: 13400 nM | GI50 [5]: 333 nM | TGI [5]: 10600 nM | GI50 [6]: 11500 nM | TGI [6]: 32200 nM | GI50 [7]: 476 nM | TGI [7]: 34600 nM | GI50 [8]: 273 nM | TGI [8]: 14300 nM | GI50 [9]: 327 nM | TGI [9]: 18900 nM | GI50 [10]: 265 nM | TGI [10]: 917 nM | GI50 [11]: 512 nM | TGI [11]: 23500 nM | GI50 [12]: 515 nM | TGI [12]: 20100 nM | GI50 [13]: 519 nM | TGI [13]: 18000 nM | GI50 [14]: 241 nM | TGI [14]: 11900 nM | GI50 [15]: 390 nM | TGI [15]: 11400 nM | GI50 [16]: 436 nM | TGI [16]: 15800 nM | GI50 [17]: 1750 nM | TGI [17]: 24200 nM | GI50 [18]: 650 nM | TGI [18]: 23400 nM | GI50 [19]: 405 nM | TGI [19]: 18100 nM | GI50 [20]: 354 nM | TGI [20]: 17900 nM | GI50 [21]: 376 nM | TGI [21]: 14600 nM | GI50 [22]: 534 nM | TGI [22]: 23200 nM | GI50 [23]: 340 nM | TGI [23]: 19700 nM | GI50 [24]: 1610 nM | TGI [24]: 28200 nM | GI50 [25]: 471 nM | TGI [25]: 18600 nM | GI50 [26]: 409 nM | TGI [26]: 12300 nM | GI50 [27]: 204 nM | TGI [27]: 1020 nM
